Measured values: PubChem BioAssay AID248 (DTP/NCI, 2004)
Toxic doses and inconclusive results are not listed. Rule as the data show it: active = T/C of 150% or more; inactive = T/C below 125%.

Tested on: L1210 leukemia ip in BDF1 mice, survival T/C
Assay: NCI In Vivo Anticancer Drug Screen. Data for tumor model L1210 Leukemia (intraperitoneal) in B6D2F1 (BDF1) mice
Details: endpoint: mean survival time, higher = longer survival
Procedure, shortened: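 Ratio derived from survival: compound-dosed mice over vehicle-dosed mice, all bearing a transplantable tumor.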

[1] = dose: 50.0 mg/kg/injection, schedule: Q01DX009 (ip), vehicle: Klucel (hydroxypropylcellulose) (HPC)
[2] = dose: 100.0 mg/kg/injection, schedule: Q01DX009 (ip), vehicle: Klucel (hydroxypropylcellulose) (HPC)
[3] = dose: 200.0 mg/kg/injection, schedule: Q01DX009 (ip), vehicle: Klucel (hydroxypropylcellulose) (HPC)
[4] = dose: 75.0 mg/kg/injection, schedule: Q01DX001 (ip), vehicle: saline
[5] = dose: 150.0 mg/kg/injection, schedule: Q01DX001 (ip), vehicle: saline
[6] = dose: 100.0 mg/kg/injection, schedule: Q04DX002 (ip), vehicle: Klucel (hydroxypropylcellulose) (HPC)
[7] = dose: 200.0 mg/kg/injection, schedule: Q04DX002 (ip), vehicle: Klucel (hydroxypropylcellulose) (HPC)
[8] = dose: 400.0 mg/kg/injection, schedule: Q04DX002 (ip), vehicle: Klucel (hydroxypropylcellulose) (HPC)
[9] = dose: 100.0 mg/kg/injection, schedule: Q01DX001 (ip), vehicle: Klucel (hydroxypropylcellulose) (HPC)
[10] = dose: 100.0 mg/kg/injection, schedule: Q04DX003 (ip), vehicle: Klucel (hydroxypropylcellulose) (HPC)
[11] = dose: 200.0 mg/kg/injection, schedule: Q01DX001 (ip), vehicle: Klucel (hydroxypropylcellulose) (HPC)
[12] = dose: 400.0 mg/kg/injection, schedule: Q01DX001 (ip), vehicle: Klucel (hydroxypropylcellulose) (HPC)
[13] = dose: 50.0 mg/kg/injection, schedule: Q04DX002 (ip), vehicle: saline with Tween-80

Measured: T/C

CC(C)=CCSc1ncnc2nc[nH]c12
inactive: dose: 31.0 mg/kg/injection, schedule: Q01DX Z (ip), vehicle: other 91 % of control | dose: 62.0 mg/kg/injection, schedule: Q01DX Z (ip), vehicle: other 117 % of control | dose: 125.0 mg/kg/injection, schedule: Q01DX Z (ip), vehicle: other 103 % of control | dose: 250.0 mg/kg/injection, schedule: Q01DX Z (ip), vehicle: other 109 % of control

COc1ccc(C2=NNc3n[nH]c(=S)n3N2)cc1OC
inactive: [1] 96 % of control | [2] 96 % of control | [3] 112 % of control

CCOC(=O)c1c[nH]c2c(ccc3cc(OC)ccc32)c1=O
inactive: [1] 101 % of control | [2] 97 % of control | [3] 97 % of control

CCCCCCSC(=O)Nc1ccc(C)c(NC(=O)SCCCCCC)c1
inactive: dose: 100.0 mg/kg/injection, schedule: Q04DX003 (ip), vehicle: saline with Tween-80 91 % of control | dose: 200.0 mg/kg/injection, schedule: Q04DX003 (ip), vehicle: saline with Tween-80 89 % of control

COc1cccc(C2Nc3cc(Cl)ccc3S2)c1O (stereo unspecified)
inactive: [4] 105 % of control | [5] 109 % of control | dose: 300.0 mg/kg/injection, schedule: Q01DX001 (ip), vehicle: saline 105 % of control

COC(=O)C1C2CCCCC2(C)CC12SCCS2 (stereo unspecified)
inactive: [6] 107 % of control | [7] 107 % of control | [8] 93 % of control

Nc1c(-c2ccccc2)[nH][nH]c1=O
inactive: [9] 91 % of control | [2] 92 % of control | [10] 100 % of control | [11] 99 % of control | [3] 92 % of control | dose: 200.0 mg/kg/injection, schedule: Q04DX003 (ip), vehicle: Klucel (hydroxypropylcellulose) (HPC) 102 % of control | [12] 94 % of control | dose: 400.0 mg/kg/injection, schedule: Q01DX009 (ip), vehicle: Klucel (hydroxypropylcellulose) (HPC) 93 % of control | dose: 400.0 mg/kg/injection, schedule: Q04DX003 (ip), vehicle: Klucel (hydroxypropylcellulose) (HPC) 104 % of control

C1CCC2(CC1)CCCCC2
inactive: dose: 5.0 mg/kg/injection, schedule: Q01DX001 (ip), vehicle: saline 97 % of control | dose: 10.0 mg/kg/injection, schedule: Q01DX001 (ip), vehicle: saline 103 % of control | dose: 20.0 mg/kg/injection, schedule: Q01DX001 (ip), vehicle: saline 93 % of control | dose: 40.0 mg/kg/injection, schedule: Q01DX001 (ip), vehicle: saline 97 % of control | dose: 80.0 mg/kg/injection, schedule: Q01DX001 (ip), vehicle: saline 100 % of control

c1ccc(C2CO2)cc1 (stereo unspecified)
inactive: dose: 25.0 mg/kg/injection, schedule: Q04DX003 (ip), vehicle: Klucel (hydroxypropylcellulose) (HPC) 97 % of control | dose: 50.0 mg/kg/injection, schedule: Q01DX001 (ip), vehicle: carboxymethylcellulose (CMC) 95 % of control | dose: 50.0 mg/kg/injection, schedule: Q04DX003 (ip), vehicle: Klucel (hydroxypropylcellulose) (HPC) 90 % of control | dose: 100.0 mg/kg/injection, schedule: Q01DX001 (ip), vehicle: carboxymethylcellulose (CMC) 101 % of control | [10] 98 % of control | dose: 200.0 mg/kg/injection, schedule: Q01DX001 (ip), vehicle: carboxymethylcellulose (CMC) 97 % of control | dose: 400.0 mg/kg/injection, schedule: Q01DX001 (ip), vehicle: carboxymethylcellulose (CMC) 97 % of control

N#[N+]c1c([O-])[nH]c(=O)[nH]c1=O
inactive: [1] 95 % of control | [2] 107 % of control | [3] 88 % of control

COc1ccc(CC2(C#N)c3ccccc3C=CN2C(=O)c2ccccc2)c([N+](=O)[O-])c1OC (stereo unspecified)
inactive: [13] 97 % of control | dose: 100.0 mg/kg/injection, schedule: Q04DX002 (ip), vehicle: saline with Tween-80 87 % of control | dose: 200.0 mg/kg/injection, schedule: Q04DX002 (ip), vehicle: saline with Tween-80 97 % of control

C[N+]1(C)CC2CCCCC1C2O (stereo unspecified)
inactive: [4] 108 % of control | [5] 104 % of control

CCCC1CCC(=C2C(=O)CCC2=O)O1 (stereo unspecified)
inactive: dose: 3.13 mg/kg/injection, schedule: Q01DX009 (ip), vehicle: saline 95 % of control | dose: 6.25 mg/kg/injection, schedule: Q01DX009 (ip), vehicle: saline 98 % of control | dose: 12.5 mg/kg/injection, schedule: Q01DX009 (ip), vehicle: saline 106 % of control | dose: 25.0 mg/kg/injection, schedule: Q01DX009 (ip), vehicle: saline 104 % of control

CCNC(=O)Oc1c(Cl)cc(S(=O)(=O)F)cc1Cl
inactive: dose: 12.5 mg/kg/injection, schedule: Q01DX009 (ip), vehicle: saline with Tween-80 90 % of control | dose: 12.5 mg/kg/injection, schedule: Q04DX002 (ip), vehicle: saline with Tween-80 93 % of control | dose: 25.0 mg/kg/injection, schedule: Q01DX009 (ip), vehicle: saline with Tween-80 103 % of control | dose: 25.0 mg/kg/injection, schedule: Q04DX002 (ip), vehicle: saline with Tween-80 101 % of control | [13] 96 % of control

O=P(NC12CC3CC(CC(C3)C1)C2)(NC12CC3CC(CC(C3)C1)C2)N(CCCl)CCCl
inactive: [1] 112 % of control | [9] 105 % of control | [2] 104 % of control | [11] 94 % of control | [3] 89 % of control | [12] 98 % of control

COC1OC(CCl)C(OS(=O)(=O)c2ccc(C)cc2)C(OS(=O)(=O)c2ccc(C)cc2)C1OS(=O)(=O)c1ccc(C)cc1 (stereo unspecified)
inactive: [6] 90 % of control | [7] 93 % of control | [8] 97 % of control

Cc1ccc(S(=O)(=O)NC(=S)Nc2ccccc2)cc1
inactive: dose: 50.0 mg/kg/injection, schedule: Q01DX001 (ip), vehicle: saline 98 % of control | dose: 50.0 mg/kg/injection, schedule: Q01DX009 (ip), vehicle: saline 102 % of control | dose: 100.0 mg/kg/injection, schedule: Q01DX001 (ip), vehicle: saline 101 % of control | dose: 100.0 mg/kg/injection, schedule: Q01DX009 (ip), vehicle: saline 95 % of control | dose: 200.0 mg/kg/injection, schedule: Q01DX001 (ip), vehicle: saline 101 % of control | dose: 200.0 mg/kg/injection, schedule: Q01DX009 (ip), vehicle: saline 109 % of control

CC(=O)O/N=C(/C)c1ccccc1
inactive: dose: 75.0 mg/kg/injection, schedule: Q01DX009 (ip), vehicle: saline sonified 102 % of control | dose: 100.0 mg/kg/injection, schedule: Q04DX003 (ip), vehicle: saline sonified 100 % of control | dose: 150.0 mg/kg/injection, schedule: Q01DX009 (ip), vehicle: saline sonified 100 % of control | dose: 200.0 mg/kg/injection, schedule: Q04DX003 (ip), vehicle: saline sonified 97 % of control | dose: 400.0 mg/kg/injection, schedule: Q04DX003 (ip), vehicle: saline sonified 100 % of control
